Patent US20260133203A1, “DETECTION OF FUMARATE-DERIVED MODIFICATION IN A TEST SAMPLE” (UNIVERSITY OF SOUTH CAROLINA, priority 2017, published 2026)
Structures can show the parent of a compound that is named as a salt.

Tested on: neurons and astrocytes
Experiment: LC-MS/MS identification of succinated proteins, neurons and astrocytes overall
Type: cell-based
Details: both neurons and astrocytes
Method: For the identification of succination sites, 60 μg of protein from primary neurons, 200 μg of protein from primary astrocytes or 120 μg of protein from differentiated N1E-115 neurons were resolved by SDS-PAGE, and the gels were stained with Coomassie Brilliant Blue. After de-staining, all protein bands were excised from the gels and subjected to in-gel digestion with trypsin. Briefly, proteins were reduced with 10 mM dithiothreitol and alkylated with 170 mM 4-vinylpyridine. Trypsin digestion was carried out overnight at 37° C. in the presence of 1.5 ng sequence grade modified trypsin (Promega®, Madison, WI) in 50 mM ammonium bicarbonate. After gel extraction, the peptides were re-suspended in 1% acetic acid and analyzed on a DionexTM […] system (Thermo ScientificTM, Rockford, IL) coupled to an Orbitrap Velos ProTM mass spectrometer (Thermo ScientificTM, Rockford, IL). The LC solvents were 2% acetonitrile/0.1% formic acid (Solvent A) and 80% acetonitrile/0.1% formic acid (Solvent B). […] The data-dependent acquisition (DDA) data were analyzed using Proteome DiscovererTM 1.4 software with SEQUEST search engine against the uniprot_ref_mouse database (2014-10-03 version, 52,474 proteins) or uniprot_ref_rat database (2011-5-11 version, 39765 proteins) with Xcorr>1 validation (+2) and an allowance for 2 missed cleavages. […]

`COC(=O)/C=C/C(=O)OC` [DMF, dimethyl fumarate] was tested, and the “number of distinct protein subunits directly modified by either DMF or MMF” value was 24.
